Reference: US10757941B2, “Microbiocidal oxadiazole derivatives” (SYNGENTA PARTICIPATIONS AG, priority 2016, dated 2020)

Columns and labels:
Uromyces viciae-fabael = test: Fungicidal activity against Uromyces viciae-fabae / field bean / leaf disc preventative (faba-bean rust); format: in vivo; settings: foliar, 288 h, 100 ppm in the applied formulation, field bean leaf discs, preventative (inoculated two hours after application), assessed 12 days after application, compared to untreated, read-out: disease control
Experimental: Leaf disks or leaf segments of various plant species are cut from plants grown in a greenhouse. The cut leaf disks or segments are placed in multiwell plates (24-well format) onto water agar. The leaf disks are sprayed with a test solution before (preventative) or after (curative) inoculation. Compounds to be tested are prepared as DMSO solutions (max. 10 mg/ml) which are diluted to the appropriate concentration with 0.025% Tween20 just before spraying. The inoculated leaf disks or segments are incubated under defined conditions (temperature, relative humidity, light, etc.) according to the respective test system. A single evaluation of disease level is carried out 3 to 14 days after inoculation, depending on the pathosystem. Percent disease control relative to the untreated check leaf disks or segments is then calculated. Example 5: Fungicidal Activity Against Uromyces viciae-fabael Field Bean/Leaf Disc Preventative (Faba-Bean Rust) Field bean leaf discs are placed on water agar in multiwell plates (96-well format) and 10 μl of the formulated test compound diluted in acetone and a spreader pipetted onto the leaf disc. Two hours after application leaf discs are inoculated by spraying a spore suspension on the lower leaf surface. The leaf discs are incubated in a climate cabinet at 22° C. with 18 hour day and 70% relative humidity. The activity of a compound is assessed as percent disease control compared to untreated when an appropriate level of disease damage appears in untreated check leaf disks (12 days after application). The following compounds at 100 ppm in the applied formulation give at least 80% disease control in this test when compared to untreated control leaf discs under the same conditions, which show extensive disease development.

[1] = tested on: Puccinia recondita f. Sp. Tritici; test: Fungicidal activity against Puccinia recondita f. sp. tritici / wheat / leaf disc preventative (brown rust); format: in vivo; settings: foliar, 200 ppm in the applied formulation, wheat leaf segments cv. Kanzler, preventative (inoculated 1 day after application), assessed 7 to 9 days after application, compared to untreated, read-out: disease control
Experimental: Leaf disks or leaf segments of various plant species are cut from plants grown in a greenhouse. The cut leaf disks or segments are placed in multiwell plates (24-well format) onto water agar. The leaf disks are sprayed with a test solution before (preventative) or after (curative) inoculation. Compounds to be tested are prepared as DMSO solutions (max. 10 mg/ml) which are diluted to the appropriate concentration with 0.025% Tween20 just before spraying. The inoculated leaf disks or segments are incubated under defined conditions (temperature, relative humidity, light, etc.) according to the respective test system. A single evaluation of disease level is carried out 3 to 14 days after inoculation, depending on the pathosystem. Percent disease control relative to the untreated check leaf disks or segments is then calculated. Example 1: Fungicidal Activity Against Puccinia recondita f. Sp. Tritici/Wheat/Leaf Disc Preventative (Brown Rust) Wheat leaf segments cv. Kanzler were placed on agar in multiwell plates (24-well format) and sprayed with the formulated test compound diluted in water. The leaf disks were inoculated with a spore suspension of the fungus 1 day after application. The inoculated leaf segments were incubated at 19° C. and 75% relative humidity (rh) under a light regime of 12 hours light/12 hours darkness in a climate cabinet and the activity of a compound was assessed as percent disease control compared to untreated when an appropriate level of disease damage appears in untreated check leaf segments (7 to 9 days after application). The following compounds at 200 ppm in the applied formulation give at least 80% disease control in this test when compared to untreated control leaf disks under the same conditions, which show extensive disease development.

[2] = tested on: Glomerella lagenarium (Colletotrichum lagenarium); test: Fungicidal activity against Glomerella lagenarium (Colletotrichum lagenarium) liquid culture / cucumber / preventative (anthracnose); format: cell-based; settings: Colletotrichum orbiculare; 20 ppm in the applied formulation; liquid culture in PDB, 24° C.; inhibition of growth measured photometrically 3 to 4 days after application; compared to untreated; read-out: disease control
Experimental: Mycelia fragments or conidia suspensions of a fungus prepared either freshly from liquid cultures of the fungus or from cryogenic storage, are directly mixed into nutrient broth. DMSO solutions of the test compound (max. 10 mg/ml) are diluted with 0.025% Tween20 by a factor of 50 and 10 μl of this solution is pipetted into a microtiter plate (96-well format). The nutrient broth containing the fungal spores/mycelia fragments is then added to give an end concentration of the tested compound. The test plates are incubated in the dark at 24° C. and 96% relative humidity. The inhibition of fungal growth is determined photometrically after 2 to 7 days, depending on the pathosystem, and percent antifungal activity relative to the untreated check is calculated. Example 4: Fungicidal Activity Against Glomerella lagenarium (Colletotrichum lagenarium) Liquid Culture/Cucumber/Preventative (Anthracnose) Conidia of the fungus from cryogenic storage are directly mixed into nutrient broth (PDB—potato dextrose broth). After placing a (DMSO) solution of test compound into a microtiter plate (96-well format), the nutrient broth containing the fungal spores is added. The test plates are incubated at 24° C. and the inhibition of growth is measured photometrically 3 to 4 days after application. The following compounds at 20 ppm in the applied formulation give at least 80% disease control in this test when compared to untreated control under the same conditions, which show extensive disease development.

Phakopsora pachyrhizi = test: Fungicidal activity against Phakopsora pachyrhizi / soybean / leaf disc preventative (Asian soybean rust); format: in vivo; settings: foliar, 200 ppm in the applied formulation, soybean leaf disks, preventative (inoculated one day after application), assessed 12 to 14 days after application, compared to untreated, read-out: disease control
Experimental: Leaf disks or leaf segments of various plant species are cut from plants grown in a greenhouse. The cut leaf disks or segments are placed in multiwell plates (24-well format) onto water agar. The leaf disks are sprayed with a test solution before (preventative) or after (curative) inoculation. Compounds to be tested are prepared as DMSO solutions (max. 10 mg/ml) which are diluted to the appropriate concentration with 0.025% Tween20 just before spraying. The inoculated leaf disks or segments are incubated under defined conditions (temperature, relative humidity, light, etc.) according to the respective test system. A single evaluation of disease level is carried out 3 to 14 days after inoculation, depending on the pathosystem. Percent disease control relative to the untreated check leaf disks or segments is then calculated. Example 3: Fungicidal Activity Against Phakopsora pachyrhizi/Soybean/Leaf Disc Preventative (Asian Soybean Rust) Soybean leaf disks are placed on water agar in multiwell plates (24-well format) and sprayed with the formulated test compound diluted in water. One day after application leaf discs are inoculated by spraying a spore suspension on the lower leaf surface. After an incubation period in a climate cabinet of 24-36 hours in darkness at 20° C. and 75% rh leaf disc are kept at 20° C. with 12 h light/day and 75% rh. The activity of a compound is assessed as percent disease control compared to untreated when an appropriate level of disease damage appears in untreated check leaf disks (12 to 14 days after application). The following compounds at 200 ppm in the applied formulation give at least 80% disease control in this test when compared to untreated control leaf disks under the same conditions, which show extensive disease development.

N#CCCN(CCC#N)C(=O)c1ccc(-c2noc(C(F)(F)F)n2)c(F)c1 [Compound 1.29, N,N-bis(2-cyanoethyl)-3-fluoro-4-[5-(trifluoromethyl)-1,2,4-oxadiazol-3-yl]benzamide]
pest or weed control at 100 ppm (Uromyces viciae-fabael): ≥ 80%

O=C(NC1CC1c1ccccc1)c1ccc(-c2noc(C(F)(F)F)n2)c(F)c1 (centres unmarked) [Compound 1.34, 3-fluoro-N-(2-phenylcyclopropyl)-4-[5-(trifluoromethyl)-1,2,4-oxadiazol-3-yl]benzamide]
pest or weed control at 100 ppm (Uromyces viciae-fabael): ≥ 80%

CCOC(=O)C(CC(F)(F)F)NC(=O)c1ccc(-c2noc(C(F)(F)F)n2)c(F)c1 (centres unmarked) [Compound 1.26, ethyl 4,4,4-trifluoro-2-[[3-fluoro-4-[5-(trifluoromethyl)-1,2,4-oxadiazol-3-yl]benzoyl]amino] butanoate]
pest or weed control at 200 ppm [1]: ≥ 80% | pest or weed control at 100 ppm (Uromyces viciae-fabael): ≥ 80%

O=C(Nc1ccccc1)c1ccc(-c2noc(C(F)(F)F)n2)c(F)c1 [Compound 1.33, 3-fluoro-N-phenyl-4-[5-(trifluoromethyl)-1,2,4-oxadiazol-3-yl]benzamide]
pest or weed control at 100 ppm (Uromyces viciae-fabael): ≥ 80%

CCOc1ccc(CN(C(=O)c2ccc(-c3noc(C(F)(F)F)n3)c(F)c2)C(C)C)cc1OCC [Compound 1.17, N-[(3,4-diethoxyphenyl)methyl]-3-fluoro-N-isopropyl-4-[5-(trifluoromethyl)-1,2,4-oxadiazol-3-yl]benzamide]
pest or weed control at 200 ppm [1]: ≥ 80% | inhibition of growth at 20 ppm [2]: ≥ 80% | pest or weed control at 100 ppm (Uromyces viciae-fabael): ≥ 80%

O=C(NCCCn1ccnc1)c1ccc(-c2noc(C(F)(F)F)n2)c(F)c1 [Compound 1.32, 3-fluoro-N-(3-imidazol-1-ylpropyl)-4-[5-(trifluoromethyl)-1,2,4-oxadiazol-3-yl]benzamide]
pest or weed control at 100 ppm (Uromyces viciae-fabael): ≥ 80%

CCC(C#N)(COc1ccc(C#N)cc1)NC(=O)c1ccc(-c2noc(C(F)(F)F)n2)c(F)c1 (centres unmarked) [Compound 1.24, N-[1-cyano-1-[(4-cyanophenoxy)methyl]propyl]-3-fluoro-4-[5-(trifluoromethyl)-1,2,4-oxadiazol-3-yl]benzamide]
pest or weed control at 200 ppm [1]: ≥ 80%

Cc1ccc(C)c(CNC(=O)c2ccc(-c3noc(C(F)(F)F)n3)c(F)c2)c1 [Compound 1.3, N-[(2,5-dimethyl-phenyl)methyl]-3-fluoro-4-[5-(trifluoromethyl)-1,2,4-oxadiazol-3-yl]benzamide]
pest or weed control at 200 ppm [1]: ≥ 80% | pest or weed control at 100 ppm (Uromyces viciae-fabael): ≥ 80% | pest or weed control at 200 ppm (Phakopsora pachyrhizi): ≥ 80%

O=C(NC1CCSCC1)c1ccc(-c2noc(C(F)(F)F)n2)c(F)c1 [Compound 1.7, 3-fluoro-N-tetrahydro-thiopyran-4-yl-4-[5-(trifluoromethyl)-1,2,4-oxadiazol-3-yl]benzamide]
pest or weed control at 100 ppm (Uromyces viciae-fabael): ≥ 80%

O=C(Nc1ccnc2ncnn12)c1ccc(-c2noc(C(F)(F)F)n2)c(F)c1 [Compound 1.9, 3-fluoro-N-([1,2,4]triazolo[1,5-a]pyrimidin-7-yl)-4-[5-(trifluoromethyl)-1,2,4-oxadiazol-3-yl]benzamide]
pest or weed control at 200 ppm [1]: ≥ 80% | inhibition of growth at 20 ppm [2]: ≥ 80% | pest or weed control at 100 ppm (Uromyces viciae-fabael): ≥ 80%

CN1CCC2(CC1)CC(NC(=O)c1ccc(-c3noc(C(F)(F)F)n3)c(F)c1)C2 [Compound 1.11, 3-fluoro-N-(7-methyl-7-azaspiro[3.5]nonan-2-yl)-4-[5-(trifluoromethyl)-1,2,4-oxadiazol-3-yl]benzamide]
pest or weed control at 100 ppm (Uromyces viciae-fabael): ≥ 80% | pest or weed control at 200 ppm (Phakopsora pachyrhizi): ≥ 80%

O=C(NCCCCc1ccccc1)c1ccc(-c2noc(C(F)(F)F)n2)c(F)c1 [Compound 1.1, 3-fluoro-N-(4-phenylbutyl)-4-[5-(trifluoromethyl)-1,2,4-oxadiazol-3-yl]benzamide]
pest or weed control at 200 ppm [1]: ≥ 80% | inhibition of growth at 20 ppm [2]: ≥ 80% | pest or weed control at 100 ppm (Uromyces viciae-fabael): ≥ 80%

O=C(NC1CCc2ccccc21)c1ccc(-c2noc(C(F)(F)F)n2)c(F)c1 (centres unmarked) [Compound 1.15, 3-fluoro-N-indan-1-yl-4-[5-(trifluoromethyl)-1,2,4-oxadiazol-3-yl]benzamide]
pest or weed control at 200 ppm [1]: ≥ 80% | pest or weed control at 100 ppm (Uromyces viciae-fabael): ≥ 80% | pest or weed control at 200 ppm (Phakopsora pachyrhizi): ≥ 80%

CC(C)C(C)(C#N)NC(=O)c1ccc(-c2noc(C(F)(F)F)n2)c(F)c1 (centres unmarked) [Compound 1.30, N-(1-cyano-1,2-dimethyl-propyl)-3-fluoro-4-[5-(trifluoromethyl)-1,2,4-oxadiazol-3-yl]benzamide]
pest or weed control at 200 ppm [1]: ≥ 80% | inhibition of growth at 20 ppm [2]: ≥ 80%

CC(C)(C)CC(C)(C)NC(=O)c1ccc(-c2noc(C(F)(F)F)n2)c(F)c1 [Compound 1.37, 3-fluoro-N-(1,1,3,3-tetramethylbutyl)-4-[5-(trifluoromethyl)-1,2,4-oxadiazol-3-yl]benzamide]
inhibition of growth at 20 ppm [2]: ≥ 80% | pest or weed control at 100 ppm (Uromyces viciae-fabael): ≥ 80%

CC1CCCC(C)N1CCNC(=O)c1ccc(-c2noc(C(F)(F)F)n2)c(F)c1 (centres unmarked) [Compound 1.21, N-[2-(2,6-dimethyl-1-piperidyl)ethyl]-3-fluoro-4-[5-(trifluoromethyl)-1,2,4-oxadiazol-3-yl]benzamide]
pest or weed control at 100 ppm (Uromyces viciae-fabael): ≥ 80%

CCOc1ccc(CN(CC2OCCO2)C(=O)c2ccc(-c3noc(C(F)(F)F)n3)c(F)c2)cc1OCC [Compound 1.19, N-[(3,4-diethoxyphenyl)methyl]-N-(1,3-dioxolan-2-ylmethyl)-3-fluoro-4-[5-(trifluoromethyl)-1,2,4-oxadiazol-3-yl]benzamide]
inhibition of growth at 20 ppm [2]: ≥ 80% | pest or weed control at 100 ppm (Uromyces viciae-fabael): ≥ 80%

O=C(c1ccc(-c2noc(C(F)(F)F)n2)c(F)c1)N(Cc1ccc2c(c1)OCO2)CC1OCCO1 [Compound 1.18, N-(1,3-benzodioxol-5-ylmethyl)-N-(1,3-dioxolan-2-ylmethyl)-3-fluoro-4-[5-(trifluoromethyl)-1,2,4-oxadiazol-3-yl]benzamide]
pest or weed control at 200 ppm [1]: ≥ 80% | inhibition of growth at 20 ppm [2]: ≥ 80% | pest or weed control at 100 ppm (Uromyces viciae-fabael): ≥ 80%
